Earlier results in patent publication US11865215B2, “Tablet compositions comprising abiraterone acetate” (SYNTHON B.V., priority 2018, dated 2024).

How the values were obtained:
[1] = not given; remark: listed apart in the source

SMILES | effect of taking the tablet with food on absorption (with food) | BCS System class ([1]; compound of low solubility and low permeability) | time to reach maximum plasma concentration of abiraterone (oral administration in the fasting state) | solubility in water [1]
CC(=O)O[C@H]1CC[C@@]2(C)C(=CC[C@@H]3[C@@H]2CC[C@]2(C)C(c4cccnc4)=CC[C@@H]32)C1 [Abiraterone acetate, 3β-acetoxy-17-(3-pyridyl)androsta-5,16-diene] | significantly and undesirably increases the absorption | Class IV |  | 
C[C@]12CC[C@H](O)CC1=CC[C@@H]1[C@@H]2CC[C@]2(C)C(c3cccnc3)=CC[C@@H]12 [Abiraterone] |  |  | approx. 2 hours | less than 0.1 mg/ml
